In patent US7354941B2, “Nicotinamide benzofused-heterocyclyl derivatives useful as selective inhibitors of PDE4 isozymes” (Pfizer Products Inc., priority 2000, dated 2008):
One block for each molecule: values may come before it.

What was measured:
PDE4 = conditions: cited from earlier work
guinea-pig trachea = conditions: cited from earlier work
allergic rhinitis = conditions: in vivo; cited from earlier work
[1] = in vivo; cited from earlier work
[2] = tested on: high-affinity rolipram binding site (Sr); conditions: cited from earlier work
atopic dermatitis = conditions: topical, cited from earlier work
rhinorrhea = conditions: antigen-challenged pig; cited from earlier work
[3] = tested on: histamine-induced and antigen-induced bronchoconstriction; conditions: guinea-pig; cited from earlier work
[4] = tested on: antigen-induced bronchoconstriction; conditions: guinea-pig; cited from earlier work
colitis = conditions: rat; cited from earlier work
[5] = tested on: antigen-induced lung eosinophilia; conditions: guinea-pig; cited from earlier work
TNF-α mRNA expression = conditions: collagen II treated mice; cited from earlier work
[6] = tested on: streptococcal cell wall (SCW)-induced arthritis; conditions: in vivo; cited from earlier work
[7] = tested on: rheumatoid arthritis patients; conditions: 35 patients, t.i.d., placebo-controlled; cited from earlier work
[8] = tested on: antigen-induced bronchospasm; conditions: rat; cited from earlier work
psoriatic lesions = conditions: two double-blind studies versus vehicle; cited from earlier work
[9] = tested on: psoriatic epidermal slices; conditions: cited from earlier work
[10] = tested on: human peripheral blood mononuclear cells (HPBM); conditions: normal patients and subjects with atopic dermatitis; cited from earlier work
[11] = tested on: endotoxin-induced acute renal failure; conditions: cited from earlier work
epidermal basal cells = conditions: primary culture; cited from earlier work
patients = conditions: orally 5, 10, and 15 mg b.i.d., week 2; cited from earlier work
patients with COPD = conditions: cited from earlier work
[12] = tested on: seratonin-induced bronchoconstriction; conditions: dog; cited from earlier work
[13] = tested on: Patients with severe COPD; conditions: cited from earlier work; for mean pulmonary artery pressure: oral administration, severe COPD
[14] = tested on: isolated pulmonary artery rings; conditions: rings from normal rats and rats with hypoxia-induced pulmonary hypertension; cited from earlier work
[15] = tested on: lipopolysaccharide-induced bowel erythrocyte extravasation; conditions: pretreatment i.p. 3×, rats; cited from earlier work
[16] = tested on: patients suffering from septic shock; conditions: 1 mg/kg/hr, after 24 hours; cited from earlier work

melting point: 164 to 166 °C
SMILES: O=C(NCc1ccc(C(O)C(F)(F)F)cc1)c1cccnc1Oc1ccc2nonc2c1 (racemic) [Example 5, (±)-2-[Benzo[2,1,3]oxadiazol-5-yloxy]-N-[4-[2,2,2-trifluoro-1-hydroxy-ethyl]-benzyl]-nicotinamide]

melting point: 81 to 83 °C
SMILES: CC(O)c1ccc(CNC(=O)c2cccnc2Oc2ccc3nonc3c2)s1 (racemic) [Example 6, (±)-2-[Benzo[2,1,3]oxadiazol-5-yloxy]-N-[5-[1-hydroxy-ethyl]-thiophen-2-ylmethyl]-nicotinamide]

melting point: 128 to 130 °C
SMILES: CC(NC(=O)c1cccnc1Oc1ccc2nonc2c1)c1ccc(C(C)(C)O)cc1F (racemic) [Example 8, (±)-2-(Benzo[2,1,3]oxadiazol-5-yloxy)-N-{1-[2-fluoro-4-(1-hydroxy-1-methyl-ethyl)-phenyl]-ethyl}-nicotinamide]

melting point: 116 to 117 °C
SMILES: CC(NC(=O)c1cccnc1Oc1ccc2nonc2c1)c1ccc(C(C)(C)O)cc1 (racemic) [Example 17, (±)-2-(Benzo[2,1,3]oxadiazol-5-yloxy)-N-{1-[4-(1-hydroxy-1-methyl-ethyl)-phenyl]ethyl}-nicotinamide]

SMILES: COc1ccc(-c2nc3cnccc3o2)c2c1OC1(CCCC1)C2 [(0.0.48)]
IC50 (PDE4): 2.5 nM

SMILES: O=S1(=O)CCN(c2nc(NC3CC3)nc(C3CC3)n2)C1 [(0.0.56)]
relaxant activity, guinea-pig trachea model (guinea-pig trachea): potent relaxant agents
IC50 (PDE4): 150 nM

SMILES: CC1CC1c1nc(NC2CC2)nc(N2CCOCC2)n1 (stereo not shown) [(0.0.57)]
relaxant activity, guinea-pig trachea model (guinea-pig trachea): potent relaxant agents
IC50 (PDE4): 140 nM

SMILES: O=C(Nc1c(Cl)cncc1Cl)C(=O)c1cn(Cc2ccc(F)cc2)c2ccc(O)cc12 [AWD-12,281]
activity in a rat model of allergic rhinitis (allergic rhinitis): active

SMILES: Nc1nc2c([nH]1)c(=O)n(CC1CC1)c(=O)n2CC1CC1 [BRL-61,063]
adverse events of nausea and vomiting [1]: adverse events of nausea and vomiting

SMILES: COc1ccc(C2CNC(=O)NC2)cc1O[C@H]1C[C@@H]2CC[C@H]1C2 [CP-80,633]
affinity at the Sr [2]: high affinity at the Sr
emesis [1]: elicit emesis
inflammatory parameters (atopic dermatitis; bilaterally over eight days, twenty patients): effectively inhibit all of the inflammatory parameters tested
adverse effects (atopic dermatitis; eight days): no adverse effects

melting point: 160 to 161 °C
SMILES: CC(C)(O)c1ccc(CNC(=O)c2cccnc2Oc2ccc3nonc3c2)c(F)c1 [Example 2, 2-[Benzo[2,1,3]oxadiazol-5-yloxy]-N-[2-fluoro-4-[1-hydroxy-1-methyl-ethyl]-benzyl]-nicotinamide]

melting point: 154 to 156 °C
SMILES: CC(=O)c1ccc(CNC(=O)c2cccnc2Oc2ccc3nonc3c2)cc1 [Example 7, N-[4-Acetyl-benzyl]-2-[benzo[2,1,3]oxadiazol-5-yloxy]-nicotinamide]

melting point: 171 to 173 °C
SMILES: CC(C)(O)c1ccc(CNC(=O)c2cccnc2Oc2ccc3nonc3c2)c(Cl)c1 [Example 9, 2-(Benzo[2,1,3]oxadiazol-5-yloxy)-N-[2-chloro-4-(1-hydroxy-1-methyl-ethyl)-benzyl]-nicotinamide]

SMILES: CCCn1c(=O)c2c(C)nc(CC)n2c2nc(OC)ccc21 [Example D-22888]
anti-allergic effect and rhinorrhea (rhinorrhea): exhibit a strong anti-allergic affect and to inhibit rhinorrhea

SMILES: O=c1c2[nH]cnc2c2cccnc2n1-c1ccccc1 [KF17625]
inhibition of histamine- and antigen-induced bronchoconstriction, PAF- and antigen-induced eosinophilia, AHR, bronchospasm, anaphylactic bronchoconstriction [3]: activity

SMILES: O=c1c2c(ncn2Cc2cccnc2)c2cccnc2n1-c1ccccc1 [KF19514]
inhibition of histamine- and antigen-induced bronchoconstriction, PAF- and antigen-induced eosinophilia, AHR, bronchospasm, anaphylactic bronchoconstriction [3]: activity

SMILES: CCCn1c(=O)c2[nH]cnc2n(-c2ccc(Cl)cc2)c1=O [LAS-31025]
inhibition of antigen-induced bronchoconstriction [4]: active
effects in dextran sulfate induced colitis model (colitis): beneficial effects comparable to prednisolone
effects in models of colitis (colitis): beneficial effects

SMILES: COc1ccc(C(=O)Nc2c(Cl)cncc2Cl)cc1OC1CCCC1 [RP-73,401]
inhibition of antigen-induced lung, BAL and airway eosinophilia, EPO, PAF- and ozone-induced AHR, IL-5 induced pleural eosinophila [5]: active
affinity at the Sr [2]: high affinity at the Sr
emesis [1]: elicit emesis
TNF-α mRNA expression at the pannus/cartilage interface of paw joints (TNF-α mRNA expression): decrease TNF-α mRNA expression
disease: joint destruction, synovitis, and fibrosis [6]: significant amelioration of disease
clinical improvement [7]: positive trend towards clinical improvement

SMILES: COc1ccc(CNc2c(C)noc2C)cc1OC1CCCC1 [RPR-132294]
inhibition of antigen-induced bronchospasm [8]: activity in the inhibition of antigen-induced bronchospasm

SMILES: O=c1c2cccnc2n(-c2cccc([N+](=O)[O-])c2)c(=O)n1Cc1ccncc1 [RS-23,544]
affinity at the Sr [2]: high affinity at the Sr
emesis [1]: elicit emesis

SMILES: COc1ccc(CC2CNC(=O)N2)cc1OC1CCCC1 (stereo not shown) [Ro 20-1724]
psoriatic lesions and adverse effects (psoriatic lesions): improve psoriatic lesions without adverse systemic or cutaneous effects
increase in cAMP concentration ([9]; keratomed psoriatic epidermis): 1395%
cAMP concentrations over controls ([9]; psoriatic epidermal slices and keratomed psoriatic epidermal slices): very marked elevation of cAMP concentrations over controls
inhibition of the proliferation of HPBM [10]: concentration-related inhibition
survival rates ([11]; endotoxin-treated rats): improve survival rates
renal vascular resistance, renal blood flow and glomerular filtration rate ([11]; post-treatment at 10 μg/kg/min): markedly attenuates endotoxin-induced increases in renal vascular resistance and decreases in renal blood flow and glomerular filtration rate
urinary cAMP excretion ([11]; post-treatment at 10 μg/kg/min): significantly increases urinary cAMP excretion
cAMP concentrations (epidermal basal cells): three-fold increase

SMILES: COc1ccc([C@]2(C#N)CC[C@@H](C(=O)O)CC2)cc1OC1CCCC1 [SB-207,499]
affinity at the Sr [2]: comparatively low affinity at the Sr
trough FEV1 from placebo (patients): significant increases
improvement in trough FEV1 (patients with COPD; 15 mg b.i.d., week 6): 11%
maximum mean difference in trough FEV1 compared with placebo (patients with COPD; 15 mg b.i.d., week 6): 160 mL
FEV1 and forced vital capacity (FVC) (patients with COPD; 15 mg twice a day for six weeks): increrases in FEV1 and forced vital capacity (FVC)
FEV1 (patients with COPD; four week trial): evidence of improved FEV1

SMILES: COc1ccc(/C(C)=N/OC(N)=O)cc1OC1CCCC1 [WAY-PDA-641]
inhibition of seratonin-induced bronchoconstriction [12]: active

SMILES: CSc1ccc(C(=O)c2[nH]c(=O)[nH]c2C)cc1 [enoximone]
mean pulmonary artery pressure [13]: decreases in mean pulmonary artery pressure
airway resistance ([13]; patients hospitalized with decompensated COPD): reduce airway resistance

SMILES: Cc1[nH]c(=O)c(C#N)cc1-c1ccncc1 [milrinone]
relaxant activities of isoproterenol and forskolin [14]: same effect has been observed
mean pulmonary artery pressure [13]: decreases in mean pulmonary artery pressure

SMILES: CC(=O)CCCCn1c(=O)c2c(ncn2C)n(C)c1=O [pentoxifylline]
lipopolysaccharide-induced bowel erythrocyte extravasation [15]: reduces lipopolysaccharide-induced bowel erythrocyte extravasation
IL-6 levels [16]: significantly increased
TNF-α levels [16]: significantly lowered
